What was measured:
human CD38 = molecular target: T1, human CD38 (Homo sapiens, UniProt P28907); assay: human recombinant CD38 enzyme assay (hydrolysis of NAD+); assay type: biochemical; details: human recombinant CD38, 0.4 nM enzyme, 62.5 μM NAD+; read-out: hCD38 BioChem IC50
T1 sequence (P28907 1-300): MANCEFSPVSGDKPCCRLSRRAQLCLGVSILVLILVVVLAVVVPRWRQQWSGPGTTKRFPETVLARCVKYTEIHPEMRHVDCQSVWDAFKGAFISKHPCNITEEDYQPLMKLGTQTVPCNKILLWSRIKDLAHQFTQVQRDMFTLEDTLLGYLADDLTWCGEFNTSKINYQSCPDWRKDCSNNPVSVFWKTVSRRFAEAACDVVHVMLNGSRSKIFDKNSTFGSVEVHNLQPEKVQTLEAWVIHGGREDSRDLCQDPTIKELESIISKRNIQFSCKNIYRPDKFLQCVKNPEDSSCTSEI
In short: (§1)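 Cell-free recombinant enzyme, NAD+ substrate, 60 min at RT. Stop/detect: ethanol/ADH plus semicarbazide and a CD38 inhibitor (15 min), then NaOH, then resazurin/diaphorase (15 min). Remaining NAD+ read as resorufin fluorescence, Ex/Em 540/590 nm. Inhibition fitted from dose responses.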

mouse CD38 = molecular target: T2, mouse CD38 (Mus musculus, UniProt P56528); assay: mouse recombinant CD38 enzyme assay (hydrolysis of NAD+); assay type: biochemical; details: read-out: mCD38 BioChem IC50
T2 sequence (P56528 1-304): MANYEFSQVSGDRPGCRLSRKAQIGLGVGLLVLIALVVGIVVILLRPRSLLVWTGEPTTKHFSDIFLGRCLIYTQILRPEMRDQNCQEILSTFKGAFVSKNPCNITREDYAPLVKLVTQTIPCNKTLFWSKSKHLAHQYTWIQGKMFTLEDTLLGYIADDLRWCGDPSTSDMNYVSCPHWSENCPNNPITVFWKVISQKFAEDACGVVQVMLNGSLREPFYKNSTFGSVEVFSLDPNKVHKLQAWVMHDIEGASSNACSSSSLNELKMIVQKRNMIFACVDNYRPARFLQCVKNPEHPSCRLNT
In short: as §1

[1] = molecular target: T3, endogenous CD38 in HL60 cells (Homo sapiens, UniProt P28907); assay: cellular CD38 assay in HL60 cells (cellular NAD levels); assay type: cell-based; details: all-trans retinoic acid, 24 hours, read-out: hCD38 HL60 ATRA NAD Cell Diaphorase IC50
T3 construct: endogenous in cells; host or cells: HL60 (leukemic cells, treated with all-trans retinoic acid)
T3 sequence (P28907 1-300): T1 sequence (P28907 1-300)
Protocol: The compounds described herein were also assayed for their ability to inhibit the endogenous CD38 in a native cellular environment in the cellular CD38 assay, which measures the ability of the compound to modulate cellular NAD levels. […] The assays were initiated by plating 20 μL of HL60 cells in culture medium, at a density of 20000 cells per well to a 384-well Corning™ Multiwell Plates. Compounds in DMSO were added to the plates in a volume of 120 nL using the Labcyte Echo Liquid Handlers. […] The plates are then incubated for 24 hours. 50 μL of a readout-solution containing 0.2 U/mL Diaphorase enzyme, 40 uM resazurin, 10 uM FMN, 0.8 U/mL Alcohol dehydrogenase, 3% ethanol, 0.4 mg/mL bovine serum albumin, 0.2% Triton X-100 in 100 mM Tris-HCl, 30 mM EDTA, pH 8.4. The plates were read for fluorescence (Excitation/Emission=540 nm/590 nm) using an EnVision plate reader after 60 mins of incubation at ambient temperature. Note that, in Table 5, the “Compound No” corresponds to the compound numbers in Table 1.

Compound	IC50 (human CD38)	IC50 (mouse CD38)	IC50 [1]
O=C(Nc1ccc(C(F)F)nc1)c1cc(C(F)(F)F)nc(-c2cncs2)n1 [Compound 116, N-(6-(difluoromethyl)pyridin-3-yl)-2-(thiazol-5-yl)-6-(trifluoromethyl)pyrimidine-4-carboxamide]	507 nM	185 nM	8.16 µM
CO[C@H]1CC[C@H](NC(=O)c2cc(C)nc(-c3cncn3C)n2)CC1 [Compound 121, N-((1r,4r)-4-methoxycyclohexyl)-6-methyl-2-(1-methyl-1H-imidazol-5-yl)pyrimidine-4-carboxamide]	14 nM	1 nM	1.05 µM
CC(C)c1cc(C(=O)N[C@H]2CC[C@H](C(F)F)CC2)nc(-n2ccnc2)n1 [Compound 168, N-((1r,4r)-4-(difluoromethyl)cyclohexyl)-2-(1H-imidazol-1-yl)-6-isopropylpyrimidine-4-carboxamide]	313 nM	47 nM	8.65 µM
CC(C)(O)c1ccc(NC(=O)c2ccnc(-n3ccnc3)n2)cn1 [Compound 248, N-(6-(2-hydroxypropan-2-yl)pyridin-3-yl)-2-(1H-imidazol-1-yl)pyrimidine-4-carboxamide]	10.7 nM	13.8 nM	0.874 µM
Cn1cncc1-c1nc(C(=O)NC2CC3(C2)CC(F)(F)C3)cc(C(F)(F)F)n1 [Compound 154, N-(6,6-difluorospiro[3.3]heptan-2-yl)-2-(1-methyl-1H-imidazol-5-yl)-6-(trifluoromethyl)pyrimidine-4-carboxamide]	11 nM	1 nM	3.15 µM
O=C(N[C@H]1CC[C@H](C(F)F)CC1)c1ccnc(-n2ccnc2)n1 [Compound 68, N-((1r,4r)-4-(difluoromethyl)cyclohexyl)-2-(1H-imidazol-1-yl)pyrimidine-4-carboxamide]	16 nM	6 nM	1.32 µM
COCCOc1cc(C(=O)Nc2ccc(C(F)F)nc2)nc(-n2ccnc2)c1 [Compound 244, N-(6-(difluoromethyl)pyridin-3-yl)-6-(1H-imidazol-1-yl)-4-(2-methoxyethoxy)picolinamide]	1.9 nM	1 nM	0.499 µM
O=C(N[C@H]1CC[C@H](NCC(F)(F)F)CC1)c1nccc(-n2ccnc2)n1 [Compound 265, 4-(1H-imidazol-1-yl)-N-((1r,4r)-4-((2,2,2-trifluoroethyl)amino)cyclohexyl) pyrimidine-2-carboxamide]	83.4 nM	35.9 nM	4.17 µM
O=C(N[C@H]1C[C@H](c2ccc(C(F)(F)F)nc2)C1)c1nccc(-n2ccnc2)n1 [Compound 269, 4-(1H-imidazol-1-yl)-N-((1r,3r)-3-(6-(trifluoromethyl)pyridin-3-yl)cyclobutyl)pyrimidine-2-carboxamide]	199 nM	175 nM	3.95 µM
Cn1cncc1-c1ccnc(C(=O)N[C@H]2C[C@H](c3ccc(C(F)(F)F)nc3)C2)n1 [Compound 273, 4-(1-methyl-1H-imidazol-5-yl)-N-((1r,3r)-3-(6-(trifluoromethyl)pyridin-3-yl)cyclobutyl)pyrimidine-2-carboxamide]	71.9 nM	53.7 nM	2.47 µM
COCCOc1cc(-c2cncn2C)nc(C(=O)Nc2ccc(C(F)F)nc2)n1 [Compound 224, N-(6-(difluoromethyl)pyridin-3-yl)-4-(2-methoxyethoxy)-6-(1-methyl-1H-imidazol-5-yl)pyrimidine-2-carboxamide]	5.6 nM	1.1 nM	0.707 µM
Cn1cncc1-c1ccnc(C(=O)Nc2ccc(OC3CC(F)(F)C3)nc2)n1 [Compound 319]	3.6 nM	6 nM	0.964 µM
Cc1ccc(NC(=O)c2cc(-n3ccnc3)ccn2)cn1 [Compound 2, 4-(1H-imidazol-1-yl)-N-(6-methylpyridin-3-yl)picolinamide]	345 nM	1010 nM	3.06 µM
Cn1cncc1-c1ccnc(C(=O)N[C@H]2C[C@H](C(C)(C)O)C2)n1 [Compound 284, N-((1r,3r)-3-(2-hydroxypropan-2-yl)cyclobutyl)-4-(1-methyl-1H-imidazol-5-yl)pyrimidine-2-carboxamide]	277 nM	59.7 nM	11 µM
Cn1cncc1-c1ccnc(C(=O)N[C@H]2CC[C@H](C(F)F)CC2)n1 [Compound 75, N-((1r,4r)-4-(difluoromethyl)cyclohexyl)-4-(1-methyl-1H-imidazol-5-yl)pyrimidine-2-carboxamide]	41 nM	19 nM	1.36 µM
CO[C@H]1CC[C@H](NC(=O)c2cc(C(C)C)nc(-c3cncn3C)n2)CC1 [Compound 171, 6-isopropyl-N-((1r,4r)-4-methoxycyclohexyl)-2-(1-methyl-1H-imidazol-5-yl)pyrimidine-4-carboxamide]	15 nM	3 nM	3.73 µM
O=C(N[C@H]1CC[C@H](C(F)F)CC1)c1cc(C(F)(F)F)nc(-n2ccnc2)n1 [Compound 138, N-((1r,4r)-4-(difluoromethyl)cyclohexyl)-2-(1H-imidazol-1-yl)-6-(trifluoromethyl)pyrimidine-4-carboxamide]	73 nM	25 nM	3.01 µM
CCO[C@H]1C[C@H](NC(=O)c2nccc(-n3ccnc3)n2)C1 [Compound 301, N-((1r,3r)-3-ethoxycyclobutyl)-4-(1H-imidazol-1-yl)pyrimidine-2-carboxamide]	621 nM	199 nM	–
Cn1cncc1-c1ncc(Cl)c(C(=O)N[C@H]2CC[C@H](OC(F)(F)F)CC2)n1 [Compound 325, 5-chloro-2-(1-methyl-1H-imidazol-5-yl)-N-((1r,4r)-4-(trifluoromethoxy)cyclohexyl)pyrimidine-4-carboxamide]	29.8 nM	19.3 nM	–
Cn1cncc1-c1ccnc(C(=O)N[C@H]2CC[C@H](O)C2)n1 [Compound 305, N-((1S,3S)-3-hydroxycyclopentyl)-4-(1-methyl-1H-imidazol-5-yl)pyrimidine-2-carboxamide]	485 nM	62.4 nM	–
Cn1cncc1-c1ccnc(C(=O)N[C@H]2CC[C@H](OCC(F)(F)F)CC2)n1 [Compound 343, 4-(1-methyl-1H-imidazol-5-yl)-N-((1r,4r)-4-(2,2,2-trifluoroethoxy)cyclohexyl)pyrimidine-2-carboxamide]	24.3 nM	13.6 nM	–
O=C(Nc1ccc(C(F)(F)F)nc1)c1cccc(-c2cncs2)n1 [Compound 50, 6-(thiazol-5-yl)-N-(6-(trifluoromethyl)pyridin-3-yl)picolinamide]	1440 nM	855 nM	–
O=C(Nc1ccc(OC(F)F)nc1)c1nccc(-n2ccnc2)n1 [Compound 354, N-(6-(difluoromethoxy)pyridin-3-yl)-4-(1H-imidazol-1-yl)pyrimidine-2-carboxamide]	4.2 nM	16.9 nM	–
Cn1cncc1-c1cc(C(F)F)nc(C(=O)N[C@H]2CC[C@H](O)CC2)n1 [Compound 347, 4-(difluoromethyl)-N-((1r,4r)-4-hydroxycyclohexyl)-6-(1-methyl-1H-imidazol-5-yl)pyrimidine-2-carboxamide]	81.9 nM	6.2 nM	–
O=C(N[C@H]1C[C@@H](c2ccccc2)C1)c1nccc(-n2ccnc2)n1 [Compound 212, 4-(1H-imidazol-1-yl)-N-((1s,3s)-3-phenylcyclobutyl)pyrimidine-2-carboxamide]	833 nM	105 nM	–
O=C(Nc1cccnc1)c1cc(C(F)(F)F)cc(-c2cncs2)n1 [Compound 41, N-(pyridin-3-yl)-6-(thiazol-5-yl)-4-(trifluoromethyl)picolinamide]	1210 nM	244 nM	–
CO[C@H]1CC[C@H](NC(=O)c2cc(C(C)C)nc(-n3ccnc3)n2)CC1 [Compound 167, 2-(1H-imidazol-1-yl)-6-isopropyl-N-((1r,4r)-4-methoxycyclohexyl)pyrimidine-4-carboxamide]	214 nM	46 nM	–

Source: patent publication US20230116972A1, “CD38 MODULATORS AND METHODS OF USE THEREOF” (Cytokinetics, Inc., priority 2021, published 2023)
